One assay addresses Vasopressin V1a receptor (Rattus norvegicus, UniProt P30560). Briefly: Ability to displace [3H]- Arginine Vasopressin (AVP) from its specific binding sites in rat liver (V1 receptor).
The target in assay [1] is Vasopressin V1a receptor (Rattus norvegicus) (UniProt P30560). As to the kind of experiment: Inhibition expressed as percent change in diastolic blood pressure increased by AVP (30 milliunits / kg, iv) before and after oral administration at 20 uM/kg); No effect. It counts as functional, organism-based. The settings on record: Artery.
A further assay deals with Vasopressin V2 receptor (Rattus norvegicus, UniProt Q00788). Briefly: Ability to displace [3H]- Arginine Vasopressin (AVP) from its specific binding sites in rat […].
In assay [2] the target is Vasopressin V1a receptor (Rattus norvegicus) (UniProt P30560). Briefly: Inhibition expressed as percent change in diastolic blood pressure increased by AVP (30 milliunits / kg, iv) before and after oral administration at 270 uM/kg. Format: functional, organism-based. Particulars: Artery.
Assay [3] has the same target. Briefly: Inhibition expressed as percent change in diastolic blood pressure increased by AVP (30 milliunits / kg, iv) before and after oral administration at 76 uM/kg (n=4). It counts as functional, organism-based. The settings on record: Artery.
The target is the same in assay [4]. The settings on record: Artery; 22 uM.
Description: Inhibition expressed as percent change in diastolic blood pressure increased by AVP (30 milliunits / kg, iv) before and after oral administration at 22 uM/kg
The target is the same in assay [5]. As to the kind of experiment: Inhibition dose for AVP (30 milliunits/kg, iv) induced vasoconstriction when orally administarted. It counts as functional, organism-based.
For assay [6] the target is unchanged. Briefly: Inhibition expressed as percent change in diastolic blood pressure increased by AVP (30 milliunits / kg, iv) before and after oral administration at 23 uM/kg. Particulars: Artery. It counts as functional, organism-based.
The target is the same in assay [7]. Briefly: Inhibition expressed as percent change in diastolic blood pressure increased by AVP (30 milliunits / kg, iv) before and after oral administration at 79 uM/kg (n=7). Format: functional, organism-based. The settings on record: Artery.
Assay [8] has the same target. As to the kind of experiment: Inhibition expressed as percent change in diastolic blood pressure increased by AVP (30 milliunits / kg, iv) before and after oral administration at 21 uM/kg. It counts as functional, organism-based. The settings on record: Artery.
For assay [9] the target is unchanged. Particulars: Artery; 290 uM.
Description: Inhibition expressed as percent change in diastolic blood pressure increased by AVP (30 milliunits / kg, iv) before and after oral administration at 290 uM/kg

Each structure is given as a SMILES string. Active and inactive are the calls of the source. The rule behind the calls is not given here.

Chain of Vasopressin V2 receptor (Q00788 whole entry): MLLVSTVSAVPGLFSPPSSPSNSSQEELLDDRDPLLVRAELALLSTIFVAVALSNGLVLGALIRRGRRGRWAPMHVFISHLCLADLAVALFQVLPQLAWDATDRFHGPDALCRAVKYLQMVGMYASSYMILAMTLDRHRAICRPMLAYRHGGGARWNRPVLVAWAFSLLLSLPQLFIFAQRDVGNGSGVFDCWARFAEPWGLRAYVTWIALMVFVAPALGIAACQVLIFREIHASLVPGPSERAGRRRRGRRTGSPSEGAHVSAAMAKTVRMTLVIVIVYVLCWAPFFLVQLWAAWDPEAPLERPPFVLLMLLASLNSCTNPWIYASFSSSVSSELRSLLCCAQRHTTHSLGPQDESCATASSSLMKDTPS
Chain of Vasopressin V1a receptor (Rattus norvegicus) (P30560 whole entry, looked up): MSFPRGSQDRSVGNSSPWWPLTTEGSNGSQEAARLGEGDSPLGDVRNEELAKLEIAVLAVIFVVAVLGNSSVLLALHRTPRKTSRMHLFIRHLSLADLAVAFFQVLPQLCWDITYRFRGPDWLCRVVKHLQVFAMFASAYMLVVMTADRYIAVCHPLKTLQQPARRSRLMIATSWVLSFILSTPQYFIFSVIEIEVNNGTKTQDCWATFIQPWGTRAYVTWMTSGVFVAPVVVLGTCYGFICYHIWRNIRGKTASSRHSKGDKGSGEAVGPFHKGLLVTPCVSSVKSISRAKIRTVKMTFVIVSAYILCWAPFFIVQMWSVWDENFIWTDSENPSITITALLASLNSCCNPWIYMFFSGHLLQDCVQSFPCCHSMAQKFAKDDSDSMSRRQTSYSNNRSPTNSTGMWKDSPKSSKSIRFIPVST
Chain of Vasopressin V1a receptor (P30560 whole entry): as the sequence (P30560 whole entry, looked up) above

`NCCCCCCCCOc1ccc(C(=O)N2CCC(N3C(=O)CCc4ccccc43)CC2)cc1`: the IC50 on Vasopressin V1a receptor was found to be 0.068 µM; on Vasopressin V2 receptor, 44 µM. Also, in [1], the inhibition result is “inactive”.
With `O=C(c1ccccc1O)N1CCC(N2C(=O)CCc3ccccc32)CC1`, the IC50 on Vasopressin V1a receptor is 1.5 µM; at Vasopressin V2 receptor, over 100 µM.
With `O=C(O)c1ccc(C(=O)N2CCC(N3C(=O)CCc4ccccc43)CC2)cc1`, the concentration for half-maximal inhibition (IC50) at Vasopressin V1a receptor and at Vasopressin V2 receptor was over 100 µM in each case.
For the molecule `CC(=O)Oc1ccc(C(=O)N2CCC(N3C(=O)CCc4ccccc43)CC2)cc1`, the IC50 at Vasopressin V2 receptor was over 100 µM.
In turn, `CCCc1ccc(C(=O)N2CCC(N3C(=O)CCc4ccccc43)CC2)cc1` gave an inhibition in assay [2] of 86%. For the same molecule, the IC50 is 0.33 µM on Vasopressin V1a receptor and over 100 µM on Vasopressin V2 receptor.
Turning to `O=CNCCCCOc1ccc(C(=O)N2CCC(N3C(=O)CCc4ccccc43)CC2)cc1`, the IC50 on Vasopressin V1a receptor was 0.25 µM; on Vasopressin V2 receptor, over 100 µM.
In the same order, the values of `COC(=O)c1ccc(C(=O)N2CCC(N3C(=O)CCc4ccccc43)CC2)cc1` are 3.5 µM and over 100 µM.
`O=C(c1ccc([N+](=O)[O-])cc1)N1CCC(N2C(=O)CCc3ccccc32)CC1`: the IC50 at Vasopressin V1a receptor was 2 µM; at Vasopressin V2 receptor, over 100 µM.
On to `CCCCCCOc1ccc(C(=O)N2CCC(N3C(=O)CCc4ccccc43)CC2)cc1`, for which the IC50 on Vasopressin V1a receptor came out at 1.5 µM; at Vasopressin V2 receptor, 54 µM.
As for `O=C(c1cccc(O)c1)N1CCC(N2C(=O)CCc3ccccc32)CC1`, the values for the IC50 at Vasopressin V1a receptor and on Vasopressin V2 receptor were 6.3 µM and over 100 µM, respectively.
In the same order, the values of `COC(=O)NCCCOc1ccc(C(=O)N2CCC(N3C(=O)CCc4ccccc43)CC2)cc1` are 0.36 µM and over 100 µM.
In the case of `CCCOc1ccc(C(=O)N2CCC(N3C(=O)CCc4ccccc43)CC2)cc1`, the IC50 at Vasopressin V1a receptor was 0.32 µM; on Vasopressin V2 receptor, over 100 µM. In assay [3], this molecule displayed an inhibition of 65%.
Turning to `O=C(c1ccccc1[N+](=O)[O-])N1CCC(N2C(=O)CCc3ccccc32)CC1`, the IC50 at Vasopressin V1a receptor was 8.4 µM; at Vasopressin V2 receptor, over 100 µM.
Take `O=C(c1cccs1)N1CCC(N2C(=O)CCc3ccccc32)CC1`: the IC50 at Vasopressin V1a receptor was 2.5 µM; at Vasopressin V2 receptor, over 100 µM.
Consider `Cc1cccc(C(=O)N2CCC(N3C(=O)CCc4ccccc43)CC2)c1`, for which the IC50 at Vasopressin V1a receptor was 1.3 µM; on Vasopressin V2 receptor it was over 100 µM.
For `O=C(c1cnccn1)N1CCC(N2C(=O)CCc3ccccc32)CC1`, in that order: 26 µM and over 100 µM.
Consider `CC(=O)NCCCCCCOc1ccc(C(=O)N2CCC(N3C(=O)CCc4ccccc43)CC2)cc1`, for which the IC50 on Vasopressin V1a receptor was 0.12 µM; at Vasopressin V2 receptor it was over 100 µM.
As for `CN1CCC(N2C(=O)CCc3ccccc32)CC1`, the results for the IC50 on Vasopressin V1a receptor and on Vasopressin V2 receptor were over 100 µM and over 50 µM, respectively.
Take `CC(=O)NCCCOc1ccc(C(=O)N2CCC(N3C(=O)CCc4ccccc43)CC2)cc1`: the results for the IC50 at Vasopressin V1a receptor and at Vasopressin V2 receptor were 0.44 µM and over 100 µM, respectively. The inhibition in assay [4] was determined as 93%. Besides, in assay [5], the ID50 came to 4.4 µmol/kg.
For `O=C(c1cccc([N+](=O)[O-])c1)N1CCC(N2C(=O)CCc3ccccc32)CC1`, the results for the IC50 at Vasopressin V1a receptor and at Vasopressin V2 receptor were 3.1 µM and over 100 µM, respectively.
With `CC(=O)NCCOc1ccc(C(=O)N2CCC(N3C(=O)CCc4ccccc43)CC2)cc1`, the inhibition in [6] was determined as 80%. Further, the values for the IC50 at Vasopressin V1a receptor and on Vasopressin V2 receptor were 0.42 µM and over 100 µM, respectively. In [5], this molecule returned an ID50 of 7.7 µmol/kg.
As for `O=C(c1ccccc1)N1CCC(N2C(=O)CCc3ccccc32)CC1`, the values for the half-inhibitory concentration (IC50) on Vasopressin V1a receptor and on Vasopressin V2 receptor were 1.9 µM and over 50 µM, respectively.
For `CCOc1ccc(C(=O)N2CCC(N3C(=O)CCc4ccccc43)CC2)cc1`, the figures for the IC50 at Vasopressin V1a receptor and on Vasopressin V2 receptor were 0.21 µM and over 100 µM, respectively. In assay [7], this molecule gave an inhibition of 75%.
As for `CC(=O)Nc1ccc(C(=O)N2CCC(N3C(=O)CCc4ccccc43)CC2)cc1`, the values for the IC50 at Vasopressin V1a receptor and at Vasopressin V2 receptor were 2.8 µM and over 100 µM, respectively.
Regarding `CC(=O)Oc1ccccc1C(=O)N1CCC(N2C(=O)CCc3ccccc32)CC1`, the IC50 on Vasopressin V1a receptor was 1.4 µM; at Vasopressin V2 receptor, over 100 µM.
In the same order, the values of `NCCOc1ccc(C(=O)N2CCC(N3C(=O)CCc4ccccc43)CC2)cc1` are 2 µM and over 100 µM.
For `CC(=O)NCCCCOc1ccc(C(=O)N2CCC(N3C(=O)CCc4ccccc43)CC2)cc1`, the inhibition in assay [8] came to 78%. The results for the IC50 on Vasopressin V1a receptor and on Vasopressin V2 receptor were 0.21 µM and over 100 µM, respectively. For the same molecule, in assay [5], the ID50 was found to be 5.3 µmol/kg.
In the same order, the values of `CC(=O)NCCCCCOc1ccc(C(=O)N2CCC(N3C(=O)CCc4ccccc43)CC2)cc1` are 81%, 0.16 µM, over 100 µM and 4.7 µmol/kg.
`O=C(c1ccc(O)cc1)N1CCC(N2C(=O)CCc3ccccc32)CC1`: the IC50 was 1.3 µM at Vasopressin V1a receptor and over 100 µM on Vasopressin V2 receptor.
In the same order, the values of `O=C(c1ccc(Br)cc1)N1CCC(N2C(=O)CCc3ccccc32)CC1` are 0.5 µM and 73 µM.
In the same order, the values of `O=C(Cc1ccccc1)N1CCC(N2C(=O)CCc3ccccc32)CC1` are 12 µM and over 100 µM.
Turning to `NCCCCCCOc1ccc(C(=O)N2CCC(N3C(=O)CCc4ccccc43)CC2)cc1`, the values for the IC50 at Vasopressin V1a receptor and at Vasopressin V2 receptor were 0.1 µM and over 100 µM, respectively.
In the same order, the values of `CCCCOc1ccc(C(=O)N2CCC(N3C(=O)CCc4ccccc43)CC2)cc1` are 0.42 µM and over 100 µM.
Consider `Nc1ccc(C(=O)N2CCC(N3C(=O)CCc4ccccc43)CC2)cc1`, for which the IC50 was 3.7 µM on Vasopressin V1a receptor and over 100 µM on Vasopressin V2 receptor.
In the same order, the values of `O=C(c1ccc(Cl)cc1)N1CCC(N2C(=O)CCc3ccccc32)CC1` are 1.2 µM and 78 µM.
With `O=C(c1ccco1)N1CCC(N2C(=O)CCc3ccccc32)CC1`, the IC50 on Vasopressin V1a receptor is 11 µM; on Vasopressin V2 receptor, over 100 µM.
For `O=C1CCc2ccccc2N1C1CCN(Cc2ccccc2)CC1`, the IC50 at Vasopressin V1a receptor and on Vasopressin V2 receptor was over 100 µM each time.
`CC(=O)Oc1cccc(C(=O)N2CCC(N3C(=O)CCc4ccccc43)CC2)c1`: the values for the IC50 at Vasopressin V1a receptor and on Vasopressin V2 receptor were 3.7 µM and over 100 µM, respectively.
For `CCC(=O)NCCCOc1ccc(C(=O)N2CCC(N3C(=O)CCc4ccccc43)CC2)cc1`, the values for the IC50 on Vasopressin V1a receptor and at Vasopressin V2 receptor were 0.78 µM and over 100 µM, respectively.
In the same order, the values of `CCc1ccc(C(=O)N2CCC(N3C(=O)CCc4ccccc43)CC2)cc1` are 0.5 µM and 80 µM.
Take `O=C(c1ccncc1)N1CCC(N2C(=O)CCc3ccccc32)CC1`: the IC50 at Vasopressin V1a receptor was 37 µM; at Vasopressin V2 receptor, over 100 µM.
For the molecule `O=CNCCCOc1ccc(C(=O)N2CCC(N3C(=O)CCc4ccccc43)CC2)cc1`, the results for the IC50 at Vasopressin V1a receptor and at Vasopressin V2 receptor were 0.24 µM and over 100 µM, respectively.
With `O=C(c1ccccc1Cl)N1CCC(N2C(=O)CCc3ccccc32)CC1`, the IC50 is 9.9 µM on Vasopressin V1a receptor and over 100 µM on Vasopressin V2 receptor.
Turning to `O=C(c1cccc(Cl)c1)N1CCC(N2C(=O)CCc3ccccc32)CC1`, the IC50 at Vasopressin V1a receptor is 4.4 µM; at Vasopressin V2 receptor, over 100 µM.
For `Cc1ccccc1C(=O)N1CCC(N2C(=O)CCc3ccccc32)CC1`, in that order: 8.4 µM and over 100 µM.
Regarding `NCCCCCOc1ccc(C(=O)N2CCC(N3C(=O)CCc4ccccc43)CC2)cc1`, the IC50 is 0.28 µM on Vasopressin V1a receptor and over 100 µM on Vasopressin V2 receptor.
In the case of `N#Cc1ccc(C(=O)N2CCC(N3C(=O)CCc4ccccc43)CC2)cc1`, the IC50 at Vasopressin V1a receptor was 3.1 µM; on Vasopressin V2 receptor it was over 100 µM.
In the case of `NCCCOc1ccc(C(=O)N2CCC(N3C(=O)CCc4ccccc43)CC2)cc1`, the values for the IC50 at Vasopressin V1a receptor and at Vasopressin V2 receptor were 0.75 µM and over 100 µM, respectively.
For `COc1ccc(C(=O)N2CCC(N3C(=O)CCc4ccccc43)CC2)cc1`, in that order: 0.62 µM and over 100 µM.
For `NC(=O)c1ccc(C(=O)N2CCC(N3C(=O)CCc4ccccc43)CC2)cc1`, in that order: 11 µM and over 100 µM.
As for `O=C(c1ccc(F)cc1)N1CCC(N2C(=O)CCc3ccccc32)CC1`, the IC50 on Vasopressin V1a receptor was 1.4 µM; on Vasopressin V2 receptor, over 100 µM.
In the same order, the values of `NCCCCOc1ccc(C(=O)N2CCC(N3C(=O)CCc4ccccc43)CC2)cc1` are 0.33 µM and over 100 µM.
As for `CCCCc1ccc(C(=O)N2CCC(N3C(=O)CCc4ccccc43)CC2)cc1`, the results for the IC50 on Vasopressin V1a receptor and on Vasopressin V2 receptor were 0.35 µM and 83 µM, respectively.
In the same order, the values of `CC(=O)NCCCCCCCCOc1ccc(C(=O)N2CCC(N3C(=O)CCc4ccccc43)CC2)cc1` are 0.3 µM and over 100 µM.
In the same order, the values of `CC(=O)N(C)CCCOc1ccc(C(=O)N2CCC(N3C(=O)CCc4ccccc43)CC2)cc1` are 0.54 µM and over 100 µM.
For `CN(C)c1ccc(C(=O)N2CCC(N3C(=O)CCc4ccccc43)CC2)cc1`, in that order: 0.47 µM and over 100 µM.
For `Cc1ccc(C(=O)N2CCC(N3C(=O)CCc4ccccc43)CC2)cc1`, the IC50 at Vasopressin V1a receptor was 0.5 µM; at Vasopressin V2 receptor, over 100 µM. This molecule came in with an inhibition in assay [9] of 23%.

Source of the values: ChEMBL document CHEMBL1126733, “Orally active, nonpeptide vasopressin V1 antagonists. A novel series of 1-(1-substituted 4-piperidyl)-3,4-dihdyro-2(1H)-quinolinone” (J Med Chem, 1993).
